# Test results published in patent US20160046582A1 (Teva Pharmaceutical Industries Ltd., priority 2014, published 2016).
# Like-named read-outs stand apart in the source and are kept apart here.
# Key:
# Hygroscopicity = type: physicochemical; conditions: exposure to air
# [1] = Chemical stability observed on handling or purification; type: physicochemical; conditions: most organic solvents and aqueous acidic medium
# [2] = Tapped density of powder (Quantachrome Dual Autotap, 1250 taps); type: physicochemical; conditions: production scale
# Text: • 1. Put the same cylinder used to calculate Bulk Density in a Quantachrome Dual Autotap instrument; • 2. Perform 1250 taps; • 3. Read the tapped volume (Vf) to the nearest graduated unit; • 4. Calculate the tapped density in g/ml according to the following equation: TD=M/Vf; • 5. Perform steps 1-4 again and report the average data of duplicates.
# [3] = Particle size distribution by Malvern laser diffraction (Mastersizer S); type: physicochemical; conditions: for PSD by Malvern D(0.9) / PSD by Malvern d(0.1) / PSD by Malvern d(0.5): modified pilot scale, 2.5 kg batch
# Method: The particle size distributions were measured by Malvern Laser Diffraction, using the Mastersizer S model. Laser diffraction relies on the fact that diffraction angle of light is inversely proportional to particle size. Properties of particles are measured and interpreted as measurements of a sphere (a sphere being the only shape that can be described by one unique number). In addition, laser diffraction calculates a particle size distribution based around volume terms, thus eliminating particle count from the determination of particle size. The Mastersizer S model measures particles using a single technique and a single range setting.
# D(0.1) is the particle size, in microns, below which 10% by volume distribution of the population is found. D(0.5) is the particle size, in microns, below which 50% by volume distribution of the population is found. D(0.9) is the particle size, in microns, below which 90% by volume distribution of the population is found.
# Bulk density of powder = type: physicochemical; conditions: production scale
# Method: • 1. Mix powder; • 2. Tare a 50 ml empty cylinder on a 0.01 g sensitivity balance; • 3. Transfer the powder, without compacting, to the cylinder being held at approximately a 45 degree angle to achieve an untapped apparent volume of 40 to 50 ml. • 4. Bring the cylinder containing the sample to a vertical position by a sharp move in order to level the volume for reading. • 5. Read the apparent volume (Va) to the nearest graduated unit; • 6. Weigh the cylinder with sample (the balance gives sample weight M); • 7. Calculate bulk density in g/ml according to the following equation: BD=M/Va; • 8. Perform steps 1-7 again and report the average data of duplicates.
# [4] = prior art examples; cited from earlier work
# [5] = cited from earlier work
# [6] = cited from earlier work; remark: listed apart in the source
# [7] = Solubility in water (description of drug substance); type: physicochemical
# Text: The solubility terms are defined below, in accordance with the United States Pharmacopoeia XXV.
# [8] = test system: active MRI lesions in relapsing MS; conditions: cited from earlier work
# [9] = test system: acute experimental autoimmune encephalomyelitis (aEAE) model; conditions: in vivo; cited from earlier work
# [10] = In vitro AMES test (CRL studies No. 962723 and No. 963892); type: cell-based; conditions: MCQ: pre-incubation method, CRL study No. 962723, MCQME: CRL study No. 963892
# [11] = In vivo MN (Covance study No. 8246631)
# [12] = laboratory scale, 25 g batch, prior art
# [13] = laboratory scale recrystallization, 25 g
# [14] = starting material of the recrystallization
smiles,measurement,setting,value
"CCN(C(=O)c1c(O)c2c(N(C)C[C@H](O)[C@@H](O)[C@H](O)[C@H](O)CO)cccc2n(C)c1=O)c1ccccc1 (stereo in doubt) [MEG-LAQ, N-ethyl-4-hydroxy-1-methyl-5-(methyl(2,3,4,5,6-pentahydroxyhexyl)amino)-2-oxo-N-phenyl-1,2-dihydroquinoline-3-carboxamide]",hygroscopicity,Hygroscopicity,high hygroscopicity
"CCN(C(=O)c1c(O)c2c(O)cccc2n(C)c1=O)c1ccccc1 [Batch 5-HLAQ, N-ethyl-4,5-dihydroxy-1-methyl-2-oxo-N-phenyl-1,2-dihydroquinoline-3-carboxamide]",stability in solvents,[1],unstable
CCN(C(=O)c1c([O-])c2c(Cl)cccc2n(C)c1=O)c1ccccc1.[Na+] [Batch C],Tapped Density,[2],0.609 g/mL
same,PSD D(0.1),[3]; production scale,4.1 μm
same,PSD D(0.5),[3]; production scale,14.0 μm
same,PSD D(0.9),[3]; production scale,32.0 μm
same,Bulk Density,Bulk density of powder,0.308 g/mL
CCN(C(=O)c1c([O-])c2c(Cl)cccc2n(C)c1=O)c1ccccc1.[Na+] [Batch D],PSD D(0.5),[3]; production scale,14.7 μm
same,PSD D(0.9),[3]; production scale,33.6 μm
same,Bulk Density,Bulk density of powder,0.288 g/mL
CCN(C(=O)c1c([O-])c2c(Cl)cccc2n(C)c1=O)c1ccccc1.[Na+] [Batch E],Tapped Density,[2],0.460 g/mL
same,PSD D(0.1),[3]; production scale,2.5 μm
same,PSD D(0.5),[3]; production scale,9.5 μm
same,PSD D(0.9),[3]; production scale,21.0 μm
same,Bulk Density,Bulk density of powder,0.245 g/mL
"CCN(C(=O)c1c([O-])c2c(Cl)cccc2n(C)c1=O)c1ccccc1.[Na+] [Example 13 of U.S. Pat. No. 7,884,208]",Tapped Density (in words),[4],high
"CCN(C(=O)c1c([O-])c2c(Cl)cccc2n(C)c1=O)c1ccccc1.[Na+] [Example 14 of U.S. Pat. No. 7,884,208]",size of 10% or more of the total amount by volume of the particles,[5]; prior art example,less than 5 microns
same,Tapped Density (in words),[4],undesired
"CCN(C(=O)c1c([O-])c2c(Cl)cccc2n(C)c1=O)c1ccccc1.[Na+] [Example 15 from U.S. Pat. No. 7,884,208]",PSD by Malvern D(0.9),[5]; [12],51.8 um
same,PSD by Malvern d(0.1),[5]; [12],6.1 um
same,PSD by Malvern d(0.5),[5]; [12],21.2 um
CCN(C(=O)c1c([O-])c2c(Cl)cccc2n(C)c1=O)c1ccccc1.[Na+] [Laboratory Scale Batch A],PSD D(0.1),[3]; [13],2.3 μm
same,PSD D(0.5),[3]; [13],10.8 μm
same,PSD D(0.9),[3]; [13],32.7 μm
CCN(C(=O)c1c([O-])c2c(Cl)cccc2n(C)c1=O)c1ccccc1.[Na+] [Laboratory Scale Batch B],PSD D(0.1),[3]; [13],2.6 μm
same,PSD D(0.5),[3]; [13],12.4 μm
same,PSD D(0.9),[3]; [13],34.3 μm
CCN(C(=O)c1c([O-])c2c(Cl)cccc2n(C)c1=O)c1ccccc1.[Na+] [Laquinimod sodium],oral bioavailability,[6],high
same,solubility in water,[7],freely soluble
"CCN(C(=O)c1c(O)c2c(Cl)cccc2n(C)c1=O)c1ccccc1 [Laquinimod, N-ethyl-N-phenyl-1,2,-dihydro-4-hydroxy-5-chloro-1-methyl-2-oxoquinoline-3-carboxamide]",development of active MRI lesions,[8],can reduce development of active MRI lesions
same,efficacy in aEAE model,[9],effective
"Cn1c(=O)cc(O)c2c(Cl)cccc21 [MCQ, 5-chloro-4-hydroxy-1-methylquinolin-2(1H)-one]",AMES test genotoxic activity,[10],AMES data negative in the pre-incubation
"COC(=O)c1c(O)c2c(Cl)cccc2n(C)c1=O [MCQME, methyl 5-chloro-4-hydroxy-1-methyl-2-oxo-1,2-dihydroquinoline-3-carboxylate]",in vivo MN,[11],negative in the in vivo MN
same,AMES test genotoxic activity,[10],Weak genotoxic activity in the in vitro
CCN(C(=O)c1c([O-])c2c(Cl)cccc2n(C)c1=O)c1ccccc1.[Na+] [Pilot Scale Batch A],PSD by Malvern D(0.9),[3],33.8 um
same,PSD by Malvern d(0.1),[3],3.3 um
same,PSD by Malvern d(0.5),[3],12.9 um
CCN(C(=O)c1c([O-])c2c(Cl)cccc2n(C)c1=O)c1ccccc1.[Na+] [Pilot Scale Batch B],PSD by Malvern D(0.9),[3],33.9 um
same,PSD by Malvern d(0.1),[3],4.1 um
same,PSD by Malvern d(0.5),[3],13.5 um
CCN(C(=O)c1c([O-])c2c(Cl)cccc2n(C)c1=O)c1ccccc1.[Na+] [crude laquinimod sodium],particle size d(0.1),[3]; [14],1-2 μ
same,particle size d(0.5),[3]; [14],6-11 μ
same,particle size d(0.9),[3]; [14],20-35 μ
